Values quoted from earlier work in patent publication US20240000142A1, “AEROSOL […] FOR AQUEOUS CANNABINOID COMPOSITIONS” (OMEGA LIFE SCIENCE LTD., priority 2020, published 2024).

Details: nicotine as a weak base; "as appreciated by the skilled in the art"

**Q.** With CN1CCCC1c1cccnc1 (stereo not shown) [nicotine] as the compound, how does the pKa read?
**A.** Its pKa is “about 8”.
